Results: ChEMBL document CHEMBL4257548, “Phenothiazine antioxidants increase mitochondrial biogenesis and frataxin levels in Friedreich's ataxia cells” (Medchemcomm, 2018)
The source made the active and inactive calls. The calls are words filed in the database; no cut-off is given here.

How the values were obtained:
GM16216 [1] = experiment: Cytoprotection against DEM-induced toxicity in human GM16216 cells assessed as increase in cell viability pretreated for 16 hrs followed by DEM addition and measured after 5 hrs by live/dead staining based flow cytometry; type: functional
GM15850 [2] = experiment: Cytoprotection against DEM-induced toxicity in human GM15850 cells assessed as increase in cell viability pretreated for 16 hrs followed by DEM addition and measured after 5 hrs by live/dead staining based flow cytometry; type: functional
GM16216 [3] = experiment: Effect on mitochondrial membrane potential in human GM16216 cells assessed as loss of mitochondrial membrane potential at 0.25 uM after 16 hrs by JC1 staining based flow cytometry (reference value: 13%); type: functional
GM16216 [4] = experiment: Effect on mitochondrial membrane potential in human GM16216 cells assessed as intact mitochondrial membrane at 0.25 uM after 16 hrs by JC1 staining based flow cytometry (reference value: 87%); type: functional
GM15850 [5] = experiment: Effect on mitochondrial membrane potential in human GM15850 cells assessed as loss of mitochondrial membrane potential at 0.25 uM after 16 hrs by JC1 staining based flow cytometry (reference value: 13%); type: functional
GM15850 [6] = experiment: Effect on mitochondrial membrane potential in human GM15850 cells assessed as intact mitochondrial membrane at 0.25 uM after 16 hrs by JC1 staining based flow cytometry (reference value: 87%); type: functional
GM15850 [7] = experiment: Cytotoxicity against human GM15850 cells at 2.5 uM after 48 hrs by live/dead staining-based flow cytometry; type: cell-based; details: gm15850, 48 h
GM16216 [8] = experiment: Cytotoxicity against human GM16216 cells at 2.5 uM after 48 hrs by live/dead staining-based flow cytometry; type: cell-based; details: gm16216, 48 h
GM15850 [9] = experiment: Inhibition of ATP production in human GM15850 cells after 24 hrs by Vialight reagent based luminescence assay; type: functional, cell-based
GM16216 [10] = experiment: Inhibition of ATP production in human GM16216 cells after 24 hrs by Vialight reagent based luminescence assay; type: functional, cell-based
GM15850 [11] = experiment: Effect on ATP production in human GM15850 cells at 0.1 uM after 24 hrs by Vialight reagent based luminescence assay; type: functional, cell-based
GM16216 [12] = experiment: Effect on ATP production in human GM16216 cells at 0.1 uM after 24 hrs by Vialight reagent based luminescence assay; type: functional, cell-based
GM15850 [13] = experiment: Cytotoxicity against human GM15850 cells at 0.25 to 2.5 uM after 24 to 48 hrs by live/dead staining-based flow cytometry; type: cell-based; details: gm15850, 2.5 µM
GM16216 [14] = experiment: Cytotoxicity against human GM16216 cells at 0.25 to 2.5 uM after 24 to 48 hrs by live/dead staining-based flow cytometry; type: cell-based; details: gm16216, 2.5 µM
GM15850 [15] = experiment: Increase in ATP production in human GM15850 cells at 0.1 to 0.5 uM after 24 hrs by Vialight reagent based luminescence assay; type: functional, cell-based
GM16216 [16] = experiment: Increase in ATP production in human GM16216 cells at 0.1 to 0.5 uM after 24 hrs by Vialight reagent based luminescence assay; type: functional, cell-based
GM15850 [17] = experiment: Inhibition of ATP production in human GM15850 cells at 2.5 uM after 24 hrs by Vialight reagent based luminescence assay; type: functional, cell-based
GM16216 [18] = experiment: Inhibition of ATP production in human GM16216 cells at 2.5 uM after 24 hrs by Vialight reagent based luminescence assay; type: functional, cell-based
GM15850 [19] = experiment: Increase in frataxin expression in human GM15850 cells at 50 to 250 nM after 24 to 48 hrs by ELISA; type: functional, cell-based
GM16216 [20] = experiment: Increase in frataxin expression in human GM16216 cells at 50 to 250 nM after 24 to 48 hrs by ELISA; type: functional, cell-based
GM15850 [21] = experiment: Induction of mitochondrial biogenesis in human GM15850 cells assessed as increase in ratio of COX1 to SDH-A protein levels at 50 to 250 nM after 24 to 48 hrs by ELISA; type: functional, cell-based
GM16216 [22] = experiment: Induction of mitochondrial biogenesis in human GM16216 cells assessed as increase in ratio of COX1 to SDH-A protein levels at 50 to 250 nM after 24 to 48 hrs by ELISA; type: functional, cell-based
GM15850 [23] = experiment: Effect on frataxin expression in human GM15850 cells at 50 nM after 24 hrs by ELISA relative to control; type: functional
GM16216 [24] = experiment: Effect on frataxin expression in human GM16216 cells at 50 nM after 24 hrs by ELISA relative to control; type: functional
GM15850 [25] = experiment: Effect on frataxin expression in human GM15850 cells at 250 nM after 24 hrs by ELISA relative to control; type: functional
GM16216 [26] = experiment: Effect on frataxin expression in human GM16216 cells at 250 nM after 24 hrs by ELISA relative to control; type: functional
GM15850 [27] = experiment: Effect on frataxin expression in human GM15850 cells at 50 nM after 48 hrs by ELISA relative to control; type: functional
GM16216 [28] = experiment: Effect on frataxin expression in human GM16216 cells at 50 nM after 48 hrs by ELISA relative to control; type: functional
GM15850 [29] = experiment: Effect on frataxin expression in human GM15850 cells at 250 nM after 48 hrs by ELISA relative to control; type: functional
GM16216 [30] = experiment: Effect on frataxin expression in human GM16216 cells at 250 nM after 48 hrs by ELISA relative to control; type: functional
GM15850 [31] = experiment: Induction of mitochondrial biogenesis in human GM15850 cells assessed as ratio of COX1 to SDH-A protein levels at 50 after 24 hrs by ELISA relative to control; type: functional
GM16216 [32] = experiment: Induction of mitochondrial biogenesis in human GM16216 cells assessed as ratio of COX1 to SDH-A protein levels at 50 after 24 hrs by ELISA relative to control; type: functional
GM15850 [33] = experiment: Induction of mitochondrial biogenesis in human GM15850 cells assessed as ratio of COX1 to SDH-A protein levels at 250 after 24 hrs by ELISA relative to control; type: functional
GM16216 [34] = experiment: Induction of mitochondrial biogenesis in human GM16216 cells assessed as ratio of COX1 to SDH-A protein levels at 250 after 24 hrs by ELISA relative to control; type: functional
GM15850 [35] = experiment: Induction of mitochondrial biogenesis in human GM15850 cells assessed as ratio of COX1 to SDH-A protein levels at 50 after 48 hrs by ELISA relative to control; type: functional
GM16216 [36] = experiment: Induction of mitochondrial biogenesis in human GM16216 cells assessed as ratio of COX1 to SDH-A protein levels at 50 after 48 hrs by ELISA relative to control; type: functional
GM15850 [37] = experiment: Induction of mitochondrial biogenesis in human GM15850 cells assessed as ratio of COX1 to SDH-A protein levels at 250 after 48 hrs by ELISA relative to control; type: functional
GM16216 [38] = experiment: Induction of mitochondrial biogenesis in human GM16216 cells assessed as ratio of COX1 to SDH-A protein levels at 250 after 48 hrs by ELISA relative to control; type: functional
GM15850 [39] = experiment: Restoration of total aconitase activity in human GM15850 cells at 50 nM after 5 days by colorimetric method relative to control; type: functional
GM16216 [40] = experiment: Restoration of total aconitase activity in human GM16216 cells at 50 nM after 5 days by colorimetric method relative to control; type: functional
GM15850 [41] = experiment: Restoration of total aconitase activity in human GM15850 cells at 250 nM after 5 days by colorimetric method relative to control; type: functional
GM16216 [42] = experiment: Restoration of total aconitase activity in human GM16216 cells at 250 nM after 5 days by colorimetric method relative to control; type: functional
GM15850 [43] = experiment: Restoration of total aconitase activity in human GM15850 cells after 5 days by colorimetric method; type: functional, cell-based
GM16216 [44] = experiment: Cytoprotection against DEM-induced toxicity in human GM16216 cells assessed as increase in cell viability at 0.1 to 2.5 uM pretreated for 16 hrs followed by DEM addition and measured after 5 hrs by live/dead staining based flow cytometry; type: functional
GM15850 [45] = experiment: Cytoprotection against DEM-induced toxicity in human GM15850 cells assessed as increase in cell viability at 0.1 to 2.5 uM pretreated for 16 hrs followed by DEM addition and measured after 5 hrs by live/dead staining based flow cytometry; type: functional

| SMILES | Activity (GM16216 [1]) | Activity (GM15850 [2]) | Activity (GM16216 [3]) | Activity (GM16216 [4]) | Activity (GM15850 [5]) | Activity (GM15850 [6]) | Activity (GM15850 [23]) | Activity (GM16216 [24]) | Activity (GM15850 [25]) | Activity (GM16216 [26]) | Activity (GM15850 [27]) | Activity (GM16216 [28]) | Activity (GM15850 [29]) | Activity (GM16216 [30]) | Activity (GM15850 [31]) | Activity (GM16216 [32]) | Activity (GM15850 [33]) | Activity (GM16216 [34]) | Activity (GM15850 [35]) | Activity (GM16216 [36]) | further results |
| --- | --- | --- | --- | --- | --- | --- | --- | --- | --- | --- | --- | --- | --- | --- | --- | --- | --- | --- | --- | --- | --- |
| CCCCCc1cc2nc3ccc(N(C)C)cc3sc-2cc1=O | Dose-dependent effect | Dose-dependent effect | 16% | 84% | 16% | 84% | – | – | – | – | – | – | – | – | – | – | – | – | – | – | Activity (GM15850 [7]): Toxic; Activity (GM16216 [8]): Toxic; inhibition (GM15850 [9]): Dose-dependent effect; inhibition (GM16216 [10]): Dose-dependent effect; Activity (GM15850 [11]): inactive; Activity (GM16216 [12]): inactive |
| CCCCCCCCCCCCCCCCc1cc2nc3ccc(N(C)C)cc3sc-2cc1=O | Dose-dependent effect | Dose-dependent effect | 12% | 88% | 12% | 88% | 120% | 120% | 127% | 127% | 124% | 124% | 131% | 131% | 127% | 127% | 132% | 132% | 132% | 132% | Activity (GM15850 [13]): Non-Toxic; Activity (GM16216 [14]): Non-Toxic; Activity (GM15850 [15]): Active; Activity (GM16216 [16]): Active; inhibition (GM15850 [17]): Active; inhibition (GM16216 [18]): Active; Activity (GM15850 [19]): Active; Activity (GM16216 [20]): Active; Activity (GM15850 [21]): Active; Activity (GM16216 [22]): Active; Activity (GM15850 [37]): 139%; Activity (GM16216 [38]): 139%; Activity (GM15850 [39]): 121%; Activity (GM16216 [40]): 121%; Activity (GM15850 [41]): 124%; Activity (GM16216 [42]): 124%; Activity (GM15850 [43]): Dose-dependent effect |
| CN(C)c1ccc2nc3ccc(=O)cc-3sc2c1 | – | – | 15% | 85% | 15% | 85% | 111% | 111% | 114% | 114% | 113% | 113% | 115% | 115% | 115% | 115% | 117% | 117% | 122% | 122% | Activity (GM16216 [44]): Active; Activity (GM15850 [45]): Active; Activity (GM15850 [37]): 131%; Activity (GM16216 [38]): 131%; Activity (GM15850 [39]): 110%; Activity (GM16216 [40]): 110%; Activity (GM15850 [41]): 113%; Activity (GM16216 [42]): 113% |
